According to US20230131720A1, “[1,3]DIAZINO[5,4-d]PYRIMIDINES AS HER2 INHIBITORS” (Boehringer Ingelheim International GmbH, priority 2020, published 2023):
Where two headings read alike, the source gives them in different places.

Assays:
Type in all cases: cell-based
[1] = tested on: EGFR WT dependent A431 cells; test: Tumor cell line proliferation assay, A431; settings: Homo sapiens, A-431, 72 h, CellTiter-Glo, read-out: GI50 A431 EGFR wt amp.
Method: (§1) For proliferation assays, NCI-H2170 (HER2 wild type), NCI-H2170 HER2 YVMA and EGFR WT dependent A431 cells were used. NCI-H2170 HER2 YVMA or NCI-H2170 cells were seeded into 96-well plates at 750 cells/60 μL in growth media (RPMI ATCC+10% FBS, +Penicillin/Streptomycin). […] Compounds were added by using a HP D3000 Digital Dispenser one day after plating the cells. All treatments were performed in technical triplicates. Treated cells were incubated for 72 h at 37° C. with 5% CO2. CellTiter-Glo® Luminescent Cell Viability Assay (Promega) was performed and chemoluminescence was measured by using the multilabel Plate Reader VICTOR X4. The raw data were imported into and analyzed with the Boehringer Ingelheim proprietary software MegaLab (curve fitting based on the program PRISM, GraphPad Inc.).

EGFR wild type (WT) = biological target: T1, EGFR wild type (WT) (Homo sapiens, UniProt P00533); test: pEGFR assay (AlphaScreen Surefire, HEK cells); settings: HEK cells expressing EGFR WT
T1 construct: expressed in transfected cells; host or cells: human HEK cells (ATCC CRL-1573), retroviral transduction
T1 sequence (P00533 25-1210): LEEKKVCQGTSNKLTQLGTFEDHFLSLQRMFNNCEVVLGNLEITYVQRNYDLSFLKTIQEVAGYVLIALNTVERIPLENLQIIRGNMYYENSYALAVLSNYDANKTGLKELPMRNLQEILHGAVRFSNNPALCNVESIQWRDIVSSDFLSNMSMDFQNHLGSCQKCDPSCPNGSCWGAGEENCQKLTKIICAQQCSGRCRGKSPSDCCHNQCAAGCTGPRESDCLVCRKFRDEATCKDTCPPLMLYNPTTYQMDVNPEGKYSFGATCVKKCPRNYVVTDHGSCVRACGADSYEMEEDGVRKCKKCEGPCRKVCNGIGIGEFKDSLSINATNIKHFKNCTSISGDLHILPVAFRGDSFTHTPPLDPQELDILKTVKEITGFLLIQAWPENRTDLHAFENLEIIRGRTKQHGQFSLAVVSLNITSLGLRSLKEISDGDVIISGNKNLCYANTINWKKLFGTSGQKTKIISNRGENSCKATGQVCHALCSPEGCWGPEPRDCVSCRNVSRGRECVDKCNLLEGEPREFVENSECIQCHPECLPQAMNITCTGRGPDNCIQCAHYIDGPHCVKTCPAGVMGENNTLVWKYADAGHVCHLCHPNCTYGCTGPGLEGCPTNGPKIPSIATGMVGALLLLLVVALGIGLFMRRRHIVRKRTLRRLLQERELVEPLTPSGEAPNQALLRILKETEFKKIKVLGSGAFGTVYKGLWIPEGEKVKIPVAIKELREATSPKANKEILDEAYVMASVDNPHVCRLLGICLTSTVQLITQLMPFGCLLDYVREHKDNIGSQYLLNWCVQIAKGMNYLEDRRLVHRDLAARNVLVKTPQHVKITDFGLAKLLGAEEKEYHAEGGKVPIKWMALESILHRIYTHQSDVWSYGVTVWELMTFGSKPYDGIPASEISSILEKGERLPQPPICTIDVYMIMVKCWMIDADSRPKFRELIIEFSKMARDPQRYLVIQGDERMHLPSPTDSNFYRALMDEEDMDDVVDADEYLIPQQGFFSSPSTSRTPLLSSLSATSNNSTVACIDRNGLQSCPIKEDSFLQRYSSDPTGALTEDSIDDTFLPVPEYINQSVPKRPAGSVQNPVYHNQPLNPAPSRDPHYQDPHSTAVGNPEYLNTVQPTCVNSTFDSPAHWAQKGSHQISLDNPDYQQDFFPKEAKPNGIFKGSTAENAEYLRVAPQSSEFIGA
Method: This assay quantifies the phosphorylation of EGFR at Tyr1068 and was used to measure the inhibitory effect of compounds on the transgenic EGFR wild type (WT) protein expressed in HEK cells.
Transduced cells were selected using puromycin. p-EGFR Tyr1068 was determined using the AlphaScreen Surefire pEGF Receptor (Tyr1068) Assay (PerkinElmer, TGRERS). For the assay, HEK EGFR WT cells were seeded in MEM medium with 10% FBS. […] Subsequently, 60.000 cells/well in 60 μL were added. Cells were incubated with compounds for 4 h at 37° C. […] The mixture was incubated at a temperature of 20-25° C.—with shaking (700 rpm) for 20 min. After centrifugation, 4 μL of the lysate were transferred to Proxiplates. […] Plates were shaken for 1 min (1400 rpm) and incubated for 2 h at a temperature of 20-25° C. in the dark.
This cellular phospho-EGFR (pEGFR) compound dose-response assay quantifies the phosphorylation of EGFR at Tyr1068 in HEK cells expressing EGFR WT. The results of the assay are provided as IC50 values.

[2] = tested on: NCI-H2170 (HER2 wild type) cells; test: Tumor cell line proliferation assay, NCI-H2170 (HER2 wild type); settings: Homo sapiens, 72 h, CellTiter-Glo, read-out: GI50 NCI H-2170 HER2 wt amp.
Method: as §1

HER2 YVMA = biological target: T2, HER2 YVMA (Homo sapiens, UniProt P04626, INS775YVMA); test: pHER2 (ERBB2) YVMA assay (AlphaScreen Surefire, HEK cells); settings: HEK cells expressing HER2 YVMA
T2 construct: expressed in transfected cells; host or cells: human HEK cells, retroviral transduction, doxycycline-inducible expression
T2 sequence (P04626 with tags, fused parts or gaps INS775YVMA): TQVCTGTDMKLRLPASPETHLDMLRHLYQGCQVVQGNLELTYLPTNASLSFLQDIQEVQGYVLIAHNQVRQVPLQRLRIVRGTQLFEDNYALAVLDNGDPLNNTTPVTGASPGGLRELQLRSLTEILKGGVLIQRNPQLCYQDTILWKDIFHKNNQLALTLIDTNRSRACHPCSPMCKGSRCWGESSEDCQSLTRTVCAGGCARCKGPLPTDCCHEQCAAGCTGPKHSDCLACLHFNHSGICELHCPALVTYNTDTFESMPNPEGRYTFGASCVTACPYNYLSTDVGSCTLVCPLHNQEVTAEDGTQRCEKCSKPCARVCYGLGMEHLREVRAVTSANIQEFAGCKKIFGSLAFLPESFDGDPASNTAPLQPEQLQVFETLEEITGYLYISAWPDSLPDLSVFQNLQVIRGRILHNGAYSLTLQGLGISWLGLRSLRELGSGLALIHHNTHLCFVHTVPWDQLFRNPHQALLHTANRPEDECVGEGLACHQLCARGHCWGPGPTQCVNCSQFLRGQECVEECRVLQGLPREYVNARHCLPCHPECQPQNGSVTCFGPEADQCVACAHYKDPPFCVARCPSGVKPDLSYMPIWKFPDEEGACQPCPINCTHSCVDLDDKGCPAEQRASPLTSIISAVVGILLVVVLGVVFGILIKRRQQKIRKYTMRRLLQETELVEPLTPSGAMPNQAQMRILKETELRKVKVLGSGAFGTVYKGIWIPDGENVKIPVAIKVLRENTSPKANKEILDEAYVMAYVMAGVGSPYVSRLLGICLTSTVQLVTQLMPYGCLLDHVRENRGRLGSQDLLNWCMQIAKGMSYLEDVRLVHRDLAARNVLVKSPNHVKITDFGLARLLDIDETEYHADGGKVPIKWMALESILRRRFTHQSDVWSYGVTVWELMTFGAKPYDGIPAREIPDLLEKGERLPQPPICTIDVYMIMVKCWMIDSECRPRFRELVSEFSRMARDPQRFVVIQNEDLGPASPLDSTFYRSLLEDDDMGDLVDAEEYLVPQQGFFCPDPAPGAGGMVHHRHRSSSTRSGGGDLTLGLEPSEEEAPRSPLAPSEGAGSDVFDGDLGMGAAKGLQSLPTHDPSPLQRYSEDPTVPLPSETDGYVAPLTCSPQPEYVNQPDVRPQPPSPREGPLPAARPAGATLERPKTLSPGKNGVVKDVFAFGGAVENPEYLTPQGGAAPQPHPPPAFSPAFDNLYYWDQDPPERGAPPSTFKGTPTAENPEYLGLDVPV
Method: For the assay, HEK HER2 YVMA cells were seeded in MEM medium with 10% FBS. 4 hours prior to compound addition, HER2 YVMA expression was induced using 1 μg/ml Doxycycline. […] Subsequently, 60.000 cells/well in 60 μL were added. Cells were incubated with compounds for 4 h at 37° C. […] The mixture was incubated at a temperature of 20-25° C. with shaking (700 rpm) for 20 min. After centrifugation, 4 μL of the lysate were transferred to Proxiplates. […] Plates were shaken for 1 min (1400 rpm) and incubated for 2 h at a temperature of 20-25° C. in the dark.
The results of the assay are provided as IC50 values.

Ba/F3 cells EGFR WT = test: Ba/F3 proliferation assay, EGFR WT (EGF dependent); settings: Mus musculus, CellTiter-Glo, read-out: GI50 BAF3 EGF dep.
Method: (§2) Plasmids containing HER2 mutants and EGFR WT were obtained from GeneScript. To generate EGFR/HER2-dependent Ba/F3 models, Ba/F3 cells were transduced with retroviruses containing vectors that harbor EGFR WT, HER2 WT or HER2 mutants (YVMA). Platinum-E cells (Cell Biolabs) were used for retrovirus packaging. Retrovirus was added to Ba/F3 cells. To ensure infection, 4 μg/mL polybrene was added and cells were spinfected. Infection efficiency was confirmed by measuring GFP-positive cells using a cell analyzer. Cells with an infection efficiency of 10% to 20% were further cultivated and puromycin selection with 1 μg/mL was initiated. As a control, parental Ba/F3 cells were used to assess the selection status. Selection was considered successful when parental Ba/F3 cells cultures died. To evaluate the transforming potential of HER2 mutations, the growth medium was no longer supplemented with IL-3. Ba/F3 cells harboring the empty vector were used as a control. A switch from IL-3 to EGF was performed for Ba/F3 cells with the EGFR WT known for its dependency on EGF ligand. Approximately ten days before conducting the experiments, puromycin was left out. For proliferation assays (data in table 12 and 14), Ba/F3 cells were seeded into 96-well plates at 5×10^3 cells/100 μL in growth media. Compounds were added by using a HP D3000 Digital Dispenser. All treatments were performed in technical triplicates. Treated cells were incubated for 72 h at 37° C. with 5% CO2. CellTiter-Glo® Luminescent Cell Viability Assay (Promega) was performed and chemoluminescence was measured by using the multilabel Plate Reader VICTOR X4. The raw data were imported into and analyzed with the Boehringer Ingelheim proprietary software MegaLab (curve fitting based on the program PRISM, GraphPad Inc.).

[3] = tested on: NCI-H2170 HER2 YVMA cells; test: Tumor cell line proliferation assay, NCI-H2170 HER2 YVMA; settings: Homo sapiens, 72 h, CellTiter-Glo, read-out: GI50 NCI H-2170 HER2 YVMA
Description: Homology-directed genome engineering was employed to insert a 12 nucleotide sequence encoding YVMA into Exon 20 of the genomic HER2 locus in NCI-H2170 cells. […] The DNA template containing the HER2 exon 20 YVMA insertion variant was obtained from GenScript. PCR followed by Sanger sequencing was used to confirm the presence of the 12-nucleotide insertion in HER2 Exon 20 resulting in the YVMA amino acid duplication.
as §1

Ba/F3 cells HER2 WT = test: Ba/F3 proliferation assay, HER2 WT; settings: Mus musculus, BaF3, 72 h, CellTiter-Glo
Method: as §2

[4] = tested on: Ba/F3 cells HER2 mutants (YVMA); test: Ba/F3 proliferation assay, HER2 YVMA; settings: Mus musculus, BaF3, 72 h, CellTiter-Glo
Method: as §2

[5] = phosphorylation at Tyr1068, 4 h
[6] = phosphorylation at Tyr1221/1222, 4 h
[7] = BaF3, EGF instead of IL-3, 72 h
[8] = BaF3, prior art compounds (Table 14), EGF, 72 h

SMILES | GI50 [1] | IC50 (EGFR wild type (WT); [5]) | IC50 (HER2 YVMA; [6]) | GI50 (Ba/F3 cells EGFR WT; [7]) | GI50 (Ba/F3 cells HER2 WT) | GI50 [4] | GI50 ([1]; prior art compounds (Table 14)) | IC50 (EGFR wild type (WT); prior art compounds (Table 13), Tyr1068, 4 h) | IC50 (HER2 YVMA; prior art compounds (Table 13), Tyr1221/1222, 4 h) | GI50 (Ba/F3 cells EGFR WT; [8]) | GI50 (Ba/F3 cells HER2 WT; prior art compounds (Table 14)) | GI50 ([4]; prior art compounds (Table 14)) | GI50 [2] | GI50 [3] | GI50 ([2]; prior art compounds (Table 14)) | GI50 ([3]; prior art compounds (Table 14))
C=CC(=O)N1CCN(c2ncc3ncnc(Nc4ccc(Oc5ccn6ncnc6c5)c(Cl)c4)c3n2)CC1 [Example I-2] | 1570 nM | 62 nM | 2 nM | 670 nM | 1 nM | 6 nM |  |  |  |  |  |  | 6 nM | 40 nM |  | 
C=CC(=O)N1CCN(c2ncc3ncnc(Nc4ccc(Oc5ccn6ncnc6c5)c(C)c4)c3n2)[C@H](C)C1 [Example I-7] | 3990 nM | 1200 nM | 7 nM | > 5000 nM | 4 nM | 29 nM |  |  |  |  |  |  | 13 nM | 125 nM |  | 
C=CC(=O)N1CCN(c2ncc3ncnc(Nc4ccc(Oc5ccn6ncnc6c5)c(C)c4)c3n2)C[C@@H]1C [Example I-5] | 3640 nM | 840 nM | 7 nM | > 5000 nM | 4 nM | 60 nM |  |  |  |  |  |  | 12 nM | 108 nM |  | 
C=CC(=O)N1CCN(c2ncc3ncnc(Nc4ccc(Oc5ccn6ncnc6c5)c(C)c4)c3n2)CC1 [Example I-1] | 2180 nM | 153 nM | 3 nM | 1370 nM | 1 nM | 9 nM |  |  |  |  |  |  | 6 nM | 36 nM |  | 
C=CC(=O)N1CCN(c2ncc3ncnc(Nc4ccc(Oc5ccn6ncnc6c5)c(C)c4)c3n2)C[C@H]1C [Example I-6] | 2640 nM | 252 nM | 6 nM | 2650 nM |  | 15 nM |  |  |  |  |  |  | 9 nM | 52 nM |  | 
C=CC(=O)N1CCN(c2ncc3ncnc(Nc4cc(F)c(Oc5ccn6ncnc6c5)c(Cl)c4)c3n2)CC1 [Example I-4] | > 5000 nM | 524 nM | 18 nM | 1010 nM | 2 nM | 20 nM |  |  |  |  |  |  | 12 nM | 85 nM |  | 
C=CC(=O)N1CCN(c2ncc3ncnc(Nc4cc(Cl)c(Oc5ccn6ncnc6c5)c(Cl)c4)c3n2)CC1 [Example I-3] | 3830 nM | 371 nM | 10 nM | 2220 nM | 2 nM | 11 nM |  |  |  |  |  |  | 12 nM | 70 nM |  | 

Now from value to compound, other results behind:

GI50 [1] | IC50 (EGFR wild type (WT); [5]) | IC50 (HER2 YVMA; [6]) | GI50 (Ba/F3 cells EGFR WT; [7]) | GI50 (Ba/F3 cells HER2 WT) | GI50 [4] | GI50 ([1]; prior art compounds (Table 14)) | IC50 (EGFR wild type (WT); prior art compounds (Table 13), Tyr1068, 4 h) | IC50 (HER2 YVMA; prior art compounds (Table 13), Tyr1221/1222, 4 h) | GI50 (Ba/F3 cells EGFR WT; [8]) | GI50 (Ba/F3 cells HER2 WT; prior art compounds (Table 14)) | GI50 ([4]; prior art compounds (Table 14)) | SMILES | GI50 [2] | GI50 [3] | GI50 ([2]; prior art compounds (Table 14)) | GI50 ([3]; prior art compounds (Table 14))
 |  |  |  |  |  | > 5000 nM | 355 nM | 81 nM | 3560 nM | 40 nM | 334 nM | C=CC(=O)Nc1ccc2ncnc(Nc3ccc(Oc4ccn5ncnc5c4)c(C)c3)c2c1 [WO 2007/059257 Ex. 169, reference compound] |  |  | 426 nM | 1430 nM
 |  |  |  |  |  | 55 nM |  |  | 14 nM |  | 5 nM | CCOc1cc2ncc(C#N)c(Nc3ccc(OCc4ccccn4)c(Cl)c3)c2cc1NC(=O)/C=C/CN(C)C [neratinib, reference compound] |  |  | 3 nM | 37 nM
3790 nM | 577 nM | 6 nM | > 5000 nM | 3 nM | 22 nM |  |  |  |  |  |  | C=CC(=O)N1CCN(c2ncc3ncnc(Nc4ccc(Oc5ccn6ncnc6c5)c(C)c4)c3n2)[C@@H](C)C1 [Example I-8] | 14 nM | 91 nM |  | 
